What was measured:
[1] = brain/plasma exposure in mice; type: in vivo; settings: mouse, brain, read-out: brain/plasma AUC ratio
[2] = metabolite profile in dog hepatocytes; type: in vitro ADME; settings: 10 μM of 1 for 4 h, UV 250 nm, normalized to largest peak
hr AT1 = target: T1, hr AT1 (Homo sapiens, UniProt P30556); experiment: receptor profile (Table S4); type: binding
T1 sequence (P30556 1-359): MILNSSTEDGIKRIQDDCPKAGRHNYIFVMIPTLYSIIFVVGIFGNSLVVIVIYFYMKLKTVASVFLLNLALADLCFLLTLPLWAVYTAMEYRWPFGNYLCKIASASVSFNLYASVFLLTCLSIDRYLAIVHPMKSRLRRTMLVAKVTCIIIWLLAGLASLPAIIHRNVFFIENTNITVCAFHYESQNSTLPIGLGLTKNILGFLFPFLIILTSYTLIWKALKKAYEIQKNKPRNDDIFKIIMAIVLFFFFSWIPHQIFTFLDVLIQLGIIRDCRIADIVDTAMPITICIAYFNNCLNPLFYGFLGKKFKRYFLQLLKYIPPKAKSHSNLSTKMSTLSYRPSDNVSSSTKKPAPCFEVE

hr CB1 ag = hr CB1 ag (Homo sapiens, UniProt P21554); experiment: receptor profile (Table S4); type: biochemical
Chain of hr CB1 ag (P21554 whole entry): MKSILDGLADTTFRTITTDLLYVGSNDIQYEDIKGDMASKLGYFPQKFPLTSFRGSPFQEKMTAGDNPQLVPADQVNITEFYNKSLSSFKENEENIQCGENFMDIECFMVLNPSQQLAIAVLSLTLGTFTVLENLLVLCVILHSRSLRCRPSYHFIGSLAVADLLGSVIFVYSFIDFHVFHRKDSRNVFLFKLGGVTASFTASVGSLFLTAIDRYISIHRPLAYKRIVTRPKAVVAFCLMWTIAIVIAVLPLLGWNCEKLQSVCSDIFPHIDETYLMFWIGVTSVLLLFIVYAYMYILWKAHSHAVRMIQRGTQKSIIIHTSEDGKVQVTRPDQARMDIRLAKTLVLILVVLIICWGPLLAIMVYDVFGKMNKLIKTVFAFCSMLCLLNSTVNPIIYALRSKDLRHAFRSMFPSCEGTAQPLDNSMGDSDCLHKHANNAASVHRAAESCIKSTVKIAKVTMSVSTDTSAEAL

hr D2 = hr D2 (Homo sapiens, UniProt P14416); experiment: receptor profile (Table S4); type: binding
Chain of hr D2 (P14416 whole entry): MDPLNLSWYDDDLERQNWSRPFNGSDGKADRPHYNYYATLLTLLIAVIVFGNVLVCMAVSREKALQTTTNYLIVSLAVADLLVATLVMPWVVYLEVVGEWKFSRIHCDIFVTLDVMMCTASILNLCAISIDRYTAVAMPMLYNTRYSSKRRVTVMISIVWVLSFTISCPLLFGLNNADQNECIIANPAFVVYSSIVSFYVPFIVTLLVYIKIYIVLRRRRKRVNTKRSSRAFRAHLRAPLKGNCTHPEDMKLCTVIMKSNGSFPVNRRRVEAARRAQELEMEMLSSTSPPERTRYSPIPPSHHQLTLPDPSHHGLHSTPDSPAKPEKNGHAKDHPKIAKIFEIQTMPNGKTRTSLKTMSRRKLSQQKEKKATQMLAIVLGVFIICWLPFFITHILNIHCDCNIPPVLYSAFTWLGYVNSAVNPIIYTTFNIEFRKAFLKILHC

hr ERa ag = hr ERa ag (Homo sapiens, UniProt P03372); experiment: receptor profile (Table S4); type: biochemical
Chain of hr ERa ag (P03372 whole entry): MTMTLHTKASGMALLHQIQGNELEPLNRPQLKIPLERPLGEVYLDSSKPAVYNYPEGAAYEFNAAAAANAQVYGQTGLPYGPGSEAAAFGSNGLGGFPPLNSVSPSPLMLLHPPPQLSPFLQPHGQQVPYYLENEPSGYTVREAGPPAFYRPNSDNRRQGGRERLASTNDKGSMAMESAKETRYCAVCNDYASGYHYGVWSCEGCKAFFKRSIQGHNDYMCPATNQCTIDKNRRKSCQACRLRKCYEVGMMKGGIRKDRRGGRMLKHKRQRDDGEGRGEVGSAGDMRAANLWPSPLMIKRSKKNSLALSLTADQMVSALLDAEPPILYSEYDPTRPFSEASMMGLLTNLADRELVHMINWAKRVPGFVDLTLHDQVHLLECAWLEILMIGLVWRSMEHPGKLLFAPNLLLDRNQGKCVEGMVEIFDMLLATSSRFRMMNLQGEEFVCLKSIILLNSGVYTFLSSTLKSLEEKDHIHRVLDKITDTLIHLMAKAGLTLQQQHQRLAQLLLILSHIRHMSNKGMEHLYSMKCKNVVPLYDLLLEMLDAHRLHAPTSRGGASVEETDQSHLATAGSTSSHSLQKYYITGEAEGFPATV

hr GR antag = target: T2, hr GR antag (Homo sapiens, UniProt P04150); experiment: receptor profile (Table S4); type: biochemical
T2 sequence (P04150 1-777): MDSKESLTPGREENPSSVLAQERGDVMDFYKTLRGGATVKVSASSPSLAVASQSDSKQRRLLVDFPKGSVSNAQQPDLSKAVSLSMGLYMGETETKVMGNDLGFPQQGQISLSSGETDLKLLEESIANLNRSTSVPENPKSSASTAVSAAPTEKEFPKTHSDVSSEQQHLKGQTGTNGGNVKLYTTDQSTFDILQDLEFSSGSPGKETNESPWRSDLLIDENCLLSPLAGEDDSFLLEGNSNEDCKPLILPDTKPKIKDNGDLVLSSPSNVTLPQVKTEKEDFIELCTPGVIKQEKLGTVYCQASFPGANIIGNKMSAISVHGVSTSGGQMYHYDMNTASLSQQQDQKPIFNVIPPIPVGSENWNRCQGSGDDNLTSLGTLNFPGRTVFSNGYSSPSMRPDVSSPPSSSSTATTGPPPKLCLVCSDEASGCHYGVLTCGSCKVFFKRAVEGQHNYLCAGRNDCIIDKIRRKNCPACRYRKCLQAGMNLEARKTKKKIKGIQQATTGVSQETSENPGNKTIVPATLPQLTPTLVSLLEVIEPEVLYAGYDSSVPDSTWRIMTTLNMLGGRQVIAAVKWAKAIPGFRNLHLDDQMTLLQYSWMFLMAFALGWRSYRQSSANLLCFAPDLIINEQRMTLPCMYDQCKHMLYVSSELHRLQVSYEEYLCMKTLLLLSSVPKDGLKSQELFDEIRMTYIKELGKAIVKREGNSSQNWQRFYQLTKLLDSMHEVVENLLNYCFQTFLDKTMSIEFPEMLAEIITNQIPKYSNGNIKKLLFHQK

hr 5-HT2B ag = hr 5-HT2B ag (Homo sapiens, UniProt P41595); experiment: receptor profile (Table S4); type: biochemical
Chain of hr 5-HT2B ag (P41595 whole entry): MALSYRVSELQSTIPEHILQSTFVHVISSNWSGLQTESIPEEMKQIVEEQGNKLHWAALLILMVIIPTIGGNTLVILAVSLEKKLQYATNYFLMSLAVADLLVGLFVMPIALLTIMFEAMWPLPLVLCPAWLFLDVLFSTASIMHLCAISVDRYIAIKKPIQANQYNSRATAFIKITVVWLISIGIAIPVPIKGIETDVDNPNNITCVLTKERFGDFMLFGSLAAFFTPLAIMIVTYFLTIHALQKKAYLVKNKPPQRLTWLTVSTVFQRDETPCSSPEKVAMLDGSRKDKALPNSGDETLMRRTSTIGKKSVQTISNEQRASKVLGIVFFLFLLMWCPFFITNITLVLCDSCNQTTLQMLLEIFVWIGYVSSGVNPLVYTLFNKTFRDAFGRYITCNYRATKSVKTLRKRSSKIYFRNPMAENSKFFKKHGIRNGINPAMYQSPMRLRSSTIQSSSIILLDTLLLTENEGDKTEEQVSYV

hr M2 antag = target: T3, hr M2 antag (Homo sapiens, UniProt P08172); experiment: receptor profile (Table S4); type: biochemical
T3 sequence (P08172 1-466): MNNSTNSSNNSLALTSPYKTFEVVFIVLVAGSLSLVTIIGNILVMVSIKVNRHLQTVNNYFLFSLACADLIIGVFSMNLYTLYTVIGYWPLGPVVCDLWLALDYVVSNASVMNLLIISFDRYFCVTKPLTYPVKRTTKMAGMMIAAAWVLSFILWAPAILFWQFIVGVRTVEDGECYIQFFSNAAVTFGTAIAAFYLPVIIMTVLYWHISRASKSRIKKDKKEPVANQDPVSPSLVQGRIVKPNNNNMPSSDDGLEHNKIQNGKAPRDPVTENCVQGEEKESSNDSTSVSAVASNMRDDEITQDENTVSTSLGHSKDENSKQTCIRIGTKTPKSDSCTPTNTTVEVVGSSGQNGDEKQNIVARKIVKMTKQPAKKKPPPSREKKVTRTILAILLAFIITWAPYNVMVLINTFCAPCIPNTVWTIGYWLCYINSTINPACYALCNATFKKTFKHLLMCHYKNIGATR

[3] = male Sprague–Dawley rat, 10 mg/kg PO; dose-normalized
Cav1.2 = Cav1.2 (Homo sapiens, UniProt Q13936); experiment: receptor profile (Table S4); settings: human
hr Cav1.2 = hr Cav1.2 (Homo sapiens, UniProt Q13936); experiment: receptor profile (Table S4); settings: hr Cav1.2
PXR = PXR (Homo sapiens, UniProt O75469); experiment: receptor profile (Table S4); settings: human
Chain of PXR (O75469 whole entry): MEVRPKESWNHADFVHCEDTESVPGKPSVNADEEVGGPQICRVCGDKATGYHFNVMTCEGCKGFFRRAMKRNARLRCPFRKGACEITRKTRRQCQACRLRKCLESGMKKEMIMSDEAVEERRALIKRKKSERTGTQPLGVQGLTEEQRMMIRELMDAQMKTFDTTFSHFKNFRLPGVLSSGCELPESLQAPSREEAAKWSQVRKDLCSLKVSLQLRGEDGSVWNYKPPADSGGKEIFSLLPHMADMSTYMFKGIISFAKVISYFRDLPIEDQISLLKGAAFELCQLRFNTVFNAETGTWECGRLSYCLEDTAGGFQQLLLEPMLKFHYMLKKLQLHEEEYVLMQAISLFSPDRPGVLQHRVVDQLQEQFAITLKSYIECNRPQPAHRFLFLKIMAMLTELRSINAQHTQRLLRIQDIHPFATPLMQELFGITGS

hr PXR ag = hr PXR ag (Homo sapiens, UniProt O75469); experiment: receptor profile (Table S4); settings: hr PXR ag
Chain of hr PXR ag (O75469 whole entry): as above

## Cc1nc(C)c(C(=O)Nc2ccc(F)c(-c3nc4ncc(-c5ncccc5C)cn4n3)c2)o1 [compound 1, N-(4-Fluoro-3-(6-(3-methylpyridin-2-yl)-[1,2,4]triazolo[1,5-a]pyrimidin-2-yl)phenyl)-2,4-dimethyloxazole-5-carboxamide]
[1]
  Kp: 0.03
[2]
  abundance dog: +++ (+++ > 75%)
Hr AT1; hr AT1
  EC50/IC50: > 30 µM
Hr AT1; read-out: % inh/act @ 10 µM
  inhibition at 10 µM: 22%
Hr AT1; read-out: % inh/act @ 30 µM
  inhibition at 30 µM: 41%
Hr CB1 ag; hr CB1 ag
  EC50/IC50: > 30 µM
Hr CB1 ag; read-out: % inh/act @ 10 µM
  inhibition at 10 µM: 0%
Hr CB1 ag; read-out: % inh/act @ 30 µM
  inhibition at 30 µM: 3%
Hr D2; hr D2
  EC50/IC50: > 30 µM
Hr D2; read-out: % inh/act @ 10 µM
  inhibition at 10 µM: 7%
Hr D2; read-out: % inh/act @ 30 µM
  inhibition at 30 µM: 15%
Hr ERa ag; hr ERa ag
  EC50/IC50: > 30 µM
Hr ERa ag; read-out: % inh/act @ 10 µM
  inhibition at 10 µM: 7%
Hr ERa ag; read-out: % inh/act @ 30 µM
  inhibition at 30 µM: 15%
Hr GR antag; hr GR antag
  EC50/IC50: > 30 µM
Hr GR antag; read-out: % inh/act @ 10 µM
  inhibition at 10 µM: 0%
Hr GR antag; read-out: % inh/act @ 30 µM
  inhibition at 30 µM: 10%
Hr 5-HT2B ag; hr 5-HT2B ag
  EC50/IC50: > 30 µM
Hr 5-HT2B ag; read-out: % inh/act @ 10 µM
  inhibition at 10 µM: -6%
Hr 5-HT2B ag; read-out: % inh/act @ 30 µM
  inhibition at 30 µM: -3%
Hr M2 antag; hr M2 antag
  EC50/IC50: > 30 µM
Hr M2 antag; read-out: % inh/act @ 10 µM
  inhibition at 10 µM: 16%
Hr M2 antag; read-out: % inh/act @ 30 µM
  inhibition at 30 µM: 31%
[3]
  DN AUC PO: 12 µM·h
  DN Cmax PO: 1000 nM
Cav1.2
  inhibition at 10 µM: -3%
  inhibition at 30 µM: -7%
Hr Cav1.2
  EC50/IC50: > 50 µM
PXR
  inhibition at 10 µM: 0%
Hr PXR ag
  EC50/IC50: > 30 µM

Source: PMC7549094 (Journal of Medicinal Chemistry, 2020)
